The values below come from patent US5536750A, “Inhibitors of farnesyl-protein transferase” (Merck & Co., Inc., priority 1994, dated 1996).

One assay deals with Ras farnesylation. To be noted: Hancock et al., Casey et al., Schafer et al.; cited from earlier work.
In assay [1] the test system is Ras farnesylation (viral Ha-ras p21) in the v-ras cell line. Nature of the assay: In vivo ras farnesylation assay in the v-ras cell line. Particulars: v-ras cells; 4 hours at 37° C. then additional 20 hours with [35S]methionine; read-out: IC50, inhibition of Ras farnesylation in the v-ras cell line. Type of assay: cell-based. How it is done: The cell line used in this assay was the v-ras line, which expressed viral Ha-ras p21. The assay was performed essentially as described in DeClue, J. E. et. al., Cancer Research 51:712-717, (1991). Cells in 10 cm dishes at 50-75% confluency were treated with the test s compound (final concentration of solvent, methanol or dimethyl sulfoxide, was 0.1%). After 4 hours at 37° C., the cells were labelled in 3 ml methionine-free DMEM supplemented with 10% regular DMEM, 2% fetal bovine serum and 400 μCi[^35 S]methionine (1000 Ci/mmol). After an additional 20 hours, the cells were lysed in 1 ml lysis buffer (1% NP40/20 mM HEPES, pH 7.5/5 mM MgCl2 /1 mM DTT/10 μg/ml aprotinen/2 μg/ml leupeptin/2 μg/ml antipain/0.5 mM PMSF) and the lysates cleared by centrifugation at 100,000 × g for 45 min. Aliqouts of lysates containing equal numbers of acid-precipitable counts were bought to 1 ml with IP buffer (lysis buffer lacking DTT) and immunoprecipitated with the ras-specific monoclonal antibody Y13-259 (Furth, M. E. et. al., J. Virol. 43:294-304, (1982)). Following a 2 hour antibody incubation at 4° C., […] of a 25% suspension of protein A-Sepharose coated with rabbit anti rat IgG was added for 45 min. […]

The next assay deals with T1, Bovine FPTase (Bos taurus, UniProt P29702+P49355).
T1 construct: Partially purified bovine FPTase; from tissue
In words: In vitro inhibition of ras farnesyl transferase, partially purified bovine FPTase, Ras-CVLS and [3H]-FPP. The format is biochemical. Particulars: 650 nM Ras-CVLS, pH 7.4, 31° C., 60 min, read-out: IC50, inhibition of RAS farnesylation (concentration giving 50% inhibition of FTase). Here is the method:
Assays of farnesyl-protein transferase. Partially purified bovine FPTase and Ras peptides (Ras-CVLS, Ras-CVIM and RAS-CAIL) were prepared as described by Schaber et al., J. Biol. Chem. 265:14701-14704 (1990), Pompliano, et al., Biochemistry 31:3800 (1992) and Gibbs et at., PNAS U.S.A. 86:6630-6634 (1989), respectively. Bovine FPTase was assayed in a volume of 100 μl containing 100 mM N-(2-hydroxy ethyl) piperazine-N'-(2-ethane sulfonic acid) (HEPES), pH 7.4, 5 mM MgCl2, 5 mM dithiothreitol (DTT), […] [^3 H]-farnesyl diphosphate ([^3 H]-FPP; […], New England Nuclear), 650 nM Ras-CVLS and 10 μg/ml FPTase at 31° C. for 60 min. Reactions were initiated with FPTase and stopped with 1 ml of 1.0M HCL in ethanol. Precipitates were collected onto filter-mats using a TomTec Mach II cell harvestor, washed with 100% ethanol, dried and counted in an LKB β-plate counter. The assay was linear with respect to both substrates, FPTase levels and time; less than 10% of the [ ^3 H]-FPP was utilized during the reaction period. Purified compounds were dissolved in 100% dimethyl sulfoxide (DMSO) and were diluted 20-fold into the assay. Percentage inhibition is measured by the amount of incorporation of farnesyl in the presence of the test compound when compared to the amount of incorporation in the absence of the test compound.

The target in a further assay is T2, Human FPTase (Homo sapiens, UniProt P49354+P49356).
T2 construct: made in house
Nature of the assay: In vitro inhibition of ras farnesyl transferase, recombinant human FPTase, Ras-CVIM and [3H]-FPP. The format is biochemical. To be noted: 100 nM Ras-CVIM, 30 min, read-out: IC50, inhibition of RAS farnesylation (concentration giving 50% inhibition of FTase).

Molecules are shown by their SMILES.

On to `CC[C@H](C)C(=O)O[C@H]1CCC=C2C=C[C@H](C)[C@H](CC[C@@H]3C[C@@H](O)CC(=O)O3)[C@H]21` [compactin], for which the “Inhibition of Ras farnesylation in vivo” value in the assay on Ras farnesylation was “Inhibition of Ras farnesylation in vivo has been demonstrated”. On to `CC[C@H](C)[C@@H](C(=O)N[C@H]1CCOC1=O)N(C)C[C@@H](NC[C@@H](N)CS)[C@@H](C)CC` [N-[2(S)-(2(R)-Amino-3-mercaptopropylamino)-3(S)-methylpentyl]-N-methyl-isoleucyl-homoserine lactone], for which the IC50 in assay [1] is 50 µM. For `CC[C@H](C)[C@@H](C(=O)N[C@@H](CCO)C(=O)O)N(C)C[C@@H](NC[C@@H](N)CS)[C@@H](C)CC` [N-[2(S)-(2(R)-Amino-3-mercaptopropylamino)-3(S)-methylpentyl]-N-methyl-isoleucyl-homoserine], at Bovine FPTase, the IC50 amounted to 72 nM. As to `CC[C@H](C)C(=O)O[C@H]1C[C@@H](C)C=C2C=C[C@H](C)[C@H](CC[C@@H]3C[C@@H](O)CC(=O)O3)[C@H]21` [lovastatin], the “Inhibition of Ras farnesylation in vivo” value with Ras farnesylation is reported as “Inhibition of Ras farnesylation in vivo has been demonstrated”. With `CC[C@H](C)[C@@H](C(=O)N[C@@H](CCSC)C(=O)O)N(C)C[C@@H](NC[C@@H](N)CS)[C@@H](C)CC` [N-[2(S)-(2(R)-amino-3-mercaptopropylamino)-3(S)-methyl-pentyl]-N-methyl-isoleucyl-methionine], the IC50 at Human FPTase was found to be 20 nM.

Regarding `CC[C@H](C)[C@@H](C(=O)N[C@@H](CCSC)C(=O)OC)N(C)C[C@@H](NC[C@@H](N)CS)[C@@H](C)CC` [N-[2(S)-(2(R)-amino-3-mercaptopropylamino)-3(S)-methyl-pentyl]-N-methyl-isoleucyl-methionine methyl ester], in assay [1], the IC50 is 5 µM.
